In the NIST ThermoML archive (doi:10.1021/je0202174):
Numbers after ± are expanded uncertainties.

Details: Liquid

CCC(C)C [2-methylbutane]
Details	viscosity [mPa·s]
253.15 K	0.3893 ± 0.0075
258.15 K	0.3661 ± 0.0072
263.15 K	0.3439 ± 0.0069
268.15 K	0.3201 ± 0.0065
273.15 K	0.3023 ± 0.0063
278.15 K	0.2859 ± 0.0061
283.15 K	0.2703 ± 0.0058
288.15 K	0.2547 ± 0.0056
293.15 K	0.2399 ± 0.0054
298.15 K	0.2289 ± 0.0052
303.15 K	0.2144 ± 0.005
308.15 K	0.2023 ± 0.0049
313.15 K	0.191 ± 0.0047
318.15 K	0.1813 ± 0.0046
323.15 K	0.1724 ± 0.0044
328.15 K	0.1611 ± 0.0043
333.15 K	0.1543 ± 0.0042
338.15 K	0.148 ± 0.0041
343.15 K	0.1411 ± 0.004
348.15 K	0.1332 ± 0.0039
353.15 K	0.1287 ± 0.0038

C1CCCC1 [cyclopentane]
Details	viscosity [mPa·s]
253.15 K	0.7268 ± 0.012
258.15 K	0.6786 ± 0.011
263.15 K	0.6347 ± 0.011
268.15 K	0.593 ± 0.01
273.15 K	0.5567 ± 0.0098
278.15 K	0.5224 ± 0.0093
283.15 K	0.4922 ± 0.0089
288.15 K	0.4646 ± 0.0085
293.15 K	0.4382 ± 0.0081
298.15 K	0.4148 ± 0.0078
303.15 K	0.3923 ± 0.0075
308.15 K	0.3714 ± 0.0072
313.15 K	0.3521 ± 0.0069
318.15 K	0.335 ± 0.0067
323.15 K	0.319 ± 0.0065
328.15 K	0.3048 ± 0.0063
333.15 K	0.2912 ± 0.0061
338.15 K	0.2793 ± 0.0059
343.15 K	0.269 ± 0.0058
348.15 K	0.259 ± 0.0056
353.15 K	0.2502 ± 0.0055
